Laboratory results: the supplement of paper PMC10307832

Key:
Assay in all cases: relative viability (nuclei count vs DMSO), 5 days (fraction); higher = more cells survive
KIN001-266 + Navitoclax = compound: CCN1CCC(CC1)N2C=C(N=N2)CNC3=CC4=C(C(=CN=C4C(=C3)Cl)C#N)NC5=CC(=C(C=C5)F)Cl [KIN001-266] + CC1(C)CCC(c2ccc(Cl)cc2)=C(CN2CCN(c3ccc(C(=O)NS(=O)(=O)c4ccc(N[C@H](CCN5CCOCC5)CSc5ccccc5)c(S(=O)(=O)C(F)(F)F)c4)cc3)CC2)C1 [Navitoclax] (partner 0.5 µM)
In short: (§1)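 One day after seeding in 1536-well plates, lung cancer cell lines were dosed by pin tool. Dosing was either single-drug or a fixed anchor-drug dose plus five library-drug doses (not always all listed) in √10 steps. After 5 days, nuclei were stained in one fix-and-stain step and counted on 4× images, and relative viability is the nuclei count of treated wells over that of vehicle wells, given as the median of duplicate plates.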

KIN001-266 + Crizotinib = compound: CCN1CCC(CC1)N2C=C(N=N2)CNC3=CC4=C(C(=CN=C4C(=C3)Cl)C#N)NC5=CC(=C(C=C5)F)Cl [KIN001-266] + C[C@@H](Oc1cc(-c2cnn(C3CCNCC3)c2)cnc1N)c1c(Cl)ccc(F)c1Cl [Crizotinib] (partner 1 µM)
In short: as §1

KIN001-266 + Dasatinib = compound: CCN1CCC(CC1)N2C=C(N=N2)CNC3=CC4=C(C(=CN=C4C(=C3)Cl)C#N)NC5=CC(=C(C=C5)F)Cl [KIN001-266] + Cc1nc(Nc2ncc(C(=O)Nc3c(C)cccc3Cl)s2)cc(N2CCN(CCO)CC2)n1 [Dasatinib] (partner 0.075 µM)
In short: as §1

KIN001-266 + Vorinostat = compound: CCN1CCC(CC1)N2C=C(N=N2)CNC3=CC4=C(C(=CN=C4C(=C3)Cl)C#N)NC5=CC(=C(C=C5)F)Cl [KIN001-266] + O=C(CCCCCCC(=O)Nc1ccccc1)NO [Vorinostat] (partner 1 µM)
In short: as §1

Row | Cell Line | relative viability (KIN001-266 + Navitoclax; first compound 0.08 µM) | relative viability (KIN001-266 + Navitoclax; first compound 0.253 µM) | relative viability (KIN001-266 + Navitoclax; first compound 0.8 µM) | relative viability (KIN001-266 + Navitoclax; first compound 2.53 µM) | relative viability (KIN001-266 + Navitoclax; first compound 8 µM) | relative viability (KIN001-266 + Crizotinib; first compound 0.08 µM) | relative viability (KIN001-266 + Crizotinib; first compound 0.253 µM) | relative viability (KIN001-266 + Crizotinib; first compound 0.8 µM) | relative viability (KIN001-266 + Crizotinib; first compound 2.53 µM) | relative viability (KIN001-266 + Crizotinib; first compound 8 µM) | relative viability (KIN001-266 + Dasatinib; first compound 0.08 µM) | relative viability (KIN001-266 + Dasatinib; first compound 0.253 µM) | relative viability (KIN001-266 + Dasatinib; first compound 0.8 µM) | relative viability (KIN001-266 + Dasatinib; first compound 2.53 µM) | relative viability (KIN001-266 + Dasatinib; first compound 8 µM) | relative viability (KIN001-266 + Vorinostat; first compound 0.08 µM) | relative viability (KIN001-266 + Vorinostat; first compound 0.253 µM) | relative viability (KIN001-266 + Vorinostat; first compound 0.8 µM) | relative viability (KIN001-266 + Vorinostat; first compound 2.53 µM) | relative viability (KIN001-266 + Vorinostat; first compound 8 µM)
1 | NCI-H647 | 1.07 | 1.28 | 1.19 | 1.15 | 1.13 | 1.1 | 1.1 | 1.05 | 1.15 | 0.825 | 0.249 | 0.268 | 0.181 | 0.152 | 0.15 | 0.562 | 0.631 | 0.921 | 0.761 | 0.508
2 | SW 1573 | 1.05 | 1.05 | 1.03 | 0.91 | 0.643 | 0.695 | 0.846 | 0.81 | 0.663 | 0.68 | 0.515 | 0.735 | 0.483 | 0.503 | 0.437 | 0.796 | 0.625 | 1.06 | 0.835 | 0.654
3 | NCI-H1651 | 0.954 | 1.04 | 1.1 | 0.949 | 1.05 | 0.935 | 0.872 | 0.876 | 0.853 | 0.823 | 0.43 | 0.421 | 0.388 | 0.472 | 0.411 | 0.568 | 0.564 | 0.533 | 0.681 | 0.577
4 | NCI-H2023 | 0.956 | 1 | 1.08 | 0.93 | 1.05 | 0.732 | 0.603 | 0.576 | 0.648 | 0.459 | 0.608 | 0.555 | 0.63 | 0.526 | 0.533 | 0.676 | 0.871 | 0.675 | 0.636 | 0.539
5 | COR-L 105 | 0.725 | 0.681 | 0.805 | 0.946 | 0.817 | 0.817 | 0.962 | 0.82 | 0.969 | 0.726 | 0.373 | 0.419 | 0.343 | 0.377 | 0.326 | 0.796 | 1.07 | 0.899 | 0.594 | 0.814
6 | NCI-H1734 | 0.789 | 0.839 | 0.612 | 0.808 | 0.61 | 0.647 | 0.601 | 0.589 | 0.681 | 0.51 | 0.474 | 0.466 | 0.43 | 0.419 | 0.401 | 0.849 | 0.85 | 0.743 | 0.796 | 0.599
7 | NCI-H3122 | 0.968 | 1.09 | 1.01 | 0.998 | 0.769 | 0.329 | 0.239 | 0.267 | 0.256 | 0.221 | 0.78 | 0.752 | 0.856 | 0.891 | 0.763 | 0.966 | 1.13 | 0.992 | 1.06 | 1.02
8 | CAL-12T | 1.47 | 1.31 | 1.17 | 1.33 | 1.15 | 0.562 | 0.565 | 0.693 | 0.589 | 0.686 | 0.444 | 0.49 | 0.345 | 0.52 | 0.278 | 0.728 | 0.662 | 0.903 | 0.73 | 0.895
9 | HCC-78 | 0.812 | 0.807 | 0.758 | 0.88 | 0.775 | 0.324 | 0.357 | 0.293 | 0.39 | 0.381 | 0.566 | 0.421 |  | 0.361 | 0.38 | 0.582 | 0.36 | 0.419 | 0.493 | 0.453
10 | NCI-H2085 | 1.15 | 1.25 | 1.08 | 1.13 | 0.906 | 0.867 | 1.05 | 0.875 | 0.794 | 0.615 | 0.221 | 0.234 | 0.241 | 0.239 | 0.244 | 0.785 | 0.779 | 0.808 | 0.772 | 0.667
